From patent publication US20030139424A1, “Use” (priority 2001, published 2003) come the findings set out here.

The assay relates to ob/ob mice. Description: Effect on food intake (and total motor activity) by single dose subcutaneous administration in ob/ob mice, operant test cage system (Eater meter). It counts as in vivo, mouse. The following applies: male ob/ob mice. From the text: Effect on Food Intake of N,N-Dimethyl 2-[1-(benzenesulphonyl)-5-methoxy-1H-indol-3-yl]ethylamine by single dose subcutaneous administration in ob/ob mice.
Obese (ob/ob) mouse is selected as the primary animal model for screening as this mutant mouse consumes high amounts of food resulting in a high signal to noise ratio. To further substantiate and compare efficacy data, the effect of the compounds on food consumption is also studied in wild type (C57BL/6J) mice. The amount of food consumed during 15 hours of infusion of compounds is recorded.
Male mice (obese C57BL/6JBom-Lep^ob and lean wild-type C57B1/6JBom; Bomholtsgaard, Denmark) 8-9 weeks with an average body weight of 50 g (obese) and 25 g (lean) are used in all the studies. The animals are housed singly in cages at 23±1° C., 40-60% humidity and have free access to water and standard laboratory chow. The 12/12-h light/dark cycle is set to lights off at 5 p.m. The animals are conditioned for at least one week before start of study.
The test compound, N,N-Dimethyl 2-[1-(benzenesulphonyl)-5-methoxy-1H-indol-3-yl]ethylamine, was dissolved in 25% Polyetylenglykol 400 (PEG 400) plus 0.1% Tween 80. +sodium actetate till pH 5. Doses of […] were used. […]
The animals were divided into four groups containing 8 animals each and treated with vehicle plus three dosages of the test compound. Food consumption, total motor activity and water consumption were measured continuously for 22 h following start of recording in a computer-assisted operant test cage system (Eater meter). […] On the fourth day the animals were treated with test compound just before dark onset (5 pm) and data recorded cumulatively for 3 h, 6 h, 12 h and 21 h. Water consumption during 22 h was also measured by weighing the days before and after treatment.
Animals were randomized according to body weight and treatment assigned in a cage- and room-wise order. […] Spillage at other time points were calculated proportionally to that of the 22 h spillage. The values are expressed as mean±SEM both as the change in gram from basal level and as percent of basal level. […]

For the compound `COc1ccc2c(c1)c(CCN(C)C)cn2S(=O)(=O)c1ccccc1` [N,N-Dimethyl 2-[1-(benzenesulphonyl)-5-methoxy-1H-indol-3-yl]ethylamine], under “single sc dose 10, 30, 50 mg salt/kg, at 6 h and 12 h following administration, significant, FIG. 1”, the “decrease of food intake” value was 15-20%. The “dose dependence of food intake effect” value (single sc dose 10, 30, 50 mg salt/kg, all doses overlapped) was “not dose-dependent”. In addition, the “approximate minimum effective dose for food intake” value (single sc dose, borderline statistical significance of 15-20% inhibition) was around 10 mg/kg.
